Laboratory results as given in ChEMBL document CHEMBL5523719, “Structure-activity relationship study of new carbazole sulfonamide derivatives as anticancer agents with dual-target mechanism” (Eur J Med Chem, 2024).
The source made the active and inactive calls. The rule behind the calls is not given here.

What was measured:
MCF7 [1] = assay: Induction of apoptosis in human MCF7 cells assessed as viable cells at 6.25 nM measured after 48 hrs by AnnexinV/PI double staining assays (reference value: 91.20%); format: functional; details: read-out: Activity
MCF7 [2] = assay: Induction of apoptosis in human MCF7 cells assessed as late apoptotic cells at 25 nM measured after 48 hrs by AnnexinV/PI double staining assays (reference value: 2.60%); format: functional
MCF7 [3] = assay: Induction of apoptosis in human MCF7 cells assessed as early apoptotic cells at 25 nM measured after 48 hrs by AnnexinV/PI double staining assays (reference value: 5.32%); format: functional
MCF7 [4] = assay: Induction of cell cycle arrest in human MCF7 cells assessed as accumulation of cells at G0/G1 phase at 100 nM measured after 24 hrs by flow cytometry (reference value: 61.73%); format: functional
MCF7 [5] = assay: Induction of cell cycle arrest in human MCF7 cells assessed as accumulation of cells at G0/G1 phase at 500 nM measured after 24 hrs by flow cytometry (reference value: 61.73%); format: functional
Tubulin (Homo sapiens) [6] = target: T1, Tubulin (Homo sapiens) (UniProt P68371+Q9H4B7+P0DPH7+P68366+Q13509+Q71U36+P04350+Q3ZCM7+P07437+P68363+Q9BQE3+Q6PEY2+Q13885+Q9BVA1+Q9BUF5); assay: Inhibition of microtubule assembly in human MCF7 cells assessed as disrupted microtubule network at 50 uM measured after 24 hrs incubation by anti-alpha-tubulin antibody (green) and Hoechst 33342 (blue) stained nuclei were obtained under microscopy; format: cell-based
MCF7 [7] = assay: Induction of apoptosis in human MCF7 cells assessed as viable cells at 12.5 nM measured after 48 hrs by AnnexinV/PI double staining assays (reference value: 91.20%); format: functional; details: read-out: Activity
HMEC-1 [8] = assay: Anti-migration activity in human HMEC-1 cells assessed as inhibition of cell migration at 5 nM measured after 48 hrs by Scratching assay; format: functional, cell-based
MDA-MB-231 = assay: Antiproliferation activity against human MDA-MB-231 cells measured after 72 hrs incubation by MTT assay; format: functional, cell-based; details: MDA-MB-231, 72 h
MCF7 [9] = assay: Antiproliferation activity against human MCF7 cells measured after 72 hrs incubation by MTT assay; format: functional, cell-based; details: MCF7, 72 h
MCF7 [10] = assay: Induction of apoptosis in human MCF7 cells assessed as early apoptotic cells at 50 nM measured after 48 hrs by AnnexinV/PI double staining assays (reference value: 5.32%); format: functional
[11] = target: DNA topoisomerase 2-alpha (Homo sapiens) (UniProt P11388); assay: Inhibition of human DNA topoisomerase 2 assessed as relaxation of supercoiled pBR322 DNA as substrate at 200 uM incubated for 30 mins by gel staining based electrophoresis analysis
Chain of DNA topoisomerase 2-alpha (Homo sapiens) (P11388 whole entry): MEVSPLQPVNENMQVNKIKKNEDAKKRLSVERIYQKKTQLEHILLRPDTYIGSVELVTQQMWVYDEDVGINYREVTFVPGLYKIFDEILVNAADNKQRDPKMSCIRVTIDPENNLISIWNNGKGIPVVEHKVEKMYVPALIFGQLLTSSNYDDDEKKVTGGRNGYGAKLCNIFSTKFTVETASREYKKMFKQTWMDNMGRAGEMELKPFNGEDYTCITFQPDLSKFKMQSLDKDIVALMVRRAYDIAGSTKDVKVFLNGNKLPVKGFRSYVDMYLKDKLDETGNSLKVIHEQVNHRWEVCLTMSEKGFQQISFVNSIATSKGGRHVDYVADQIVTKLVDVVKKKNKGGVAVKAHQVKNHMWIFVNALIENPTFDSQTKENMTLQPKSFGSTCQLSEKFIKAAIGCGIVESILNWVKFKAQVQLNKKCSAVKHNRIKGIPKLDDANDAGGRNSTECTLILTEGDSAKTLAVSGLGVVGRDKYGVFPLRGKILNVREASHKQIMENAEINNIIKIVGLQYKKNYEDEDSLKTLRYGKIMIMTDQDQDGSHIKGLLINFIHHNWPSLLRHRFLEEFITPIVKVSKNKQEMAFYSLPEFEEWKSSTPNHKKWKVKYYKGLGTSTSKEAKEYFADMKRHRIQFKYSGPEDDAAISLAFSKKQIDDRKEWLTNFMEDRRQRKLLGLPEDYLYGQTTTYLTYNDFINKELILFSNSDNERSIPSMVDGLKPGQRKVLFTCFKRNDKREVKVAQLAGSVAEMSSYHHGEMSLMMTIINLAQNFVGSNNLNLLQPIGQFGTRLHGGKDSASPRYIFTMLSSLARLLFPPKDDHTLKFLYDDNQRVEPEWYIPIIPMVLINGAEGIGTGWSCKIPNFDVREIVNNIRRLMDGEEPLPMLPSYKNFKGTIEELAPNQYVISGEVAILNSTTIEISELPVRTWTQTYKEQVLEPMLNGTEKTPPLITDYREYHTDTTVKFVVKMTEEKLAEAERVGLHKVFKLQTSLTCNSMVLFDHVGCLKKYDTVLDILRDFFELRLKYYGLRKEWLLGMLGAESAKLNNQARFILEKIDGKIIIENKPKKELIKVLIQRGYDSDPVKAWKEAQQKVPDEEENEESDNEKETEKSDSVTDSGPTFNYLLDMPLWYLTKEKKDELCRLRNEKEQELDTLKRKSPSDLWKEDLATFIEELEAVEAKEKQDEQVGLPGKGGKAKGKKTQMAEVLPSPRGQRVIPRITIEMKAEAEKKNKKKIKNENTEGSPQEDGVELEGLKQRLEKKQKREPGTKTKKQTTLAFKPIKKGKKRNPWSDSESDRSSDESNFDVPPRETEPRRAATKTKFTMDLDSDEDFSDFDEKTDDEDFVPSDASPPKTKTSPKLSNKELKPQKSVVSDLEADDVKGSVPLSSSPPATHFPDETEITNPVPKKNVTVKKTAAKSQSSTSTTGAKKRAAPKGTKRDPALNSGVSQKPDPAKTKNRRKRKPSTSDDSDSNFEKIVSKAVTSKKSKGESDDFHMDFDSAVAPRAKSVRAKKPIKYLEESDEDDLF

MCF7 [12] = assay: Induction of apoptosis in human MCF7 cells assessed as necrotic cells at 25 nM measured after 48 hrs by AnnexinV/PI double staining assays (reference value: 0.89%); format: functional
HMEC-1 [13] = assay: Anti-proliferative activity against human HMEC-1 cells measured after 48 hrs; format: functional, cell-based; details: HMEC-1, 48 h
MCF7 [14] = assay: Induction of cell cycle arrest in human MCF7 cells assessed as accumulation of cells at G2/M phase at 4 nM measured after 24 hrs by flow cytometry (reference value: 22.84%); format: functional
Tubulin (Homo sapiens) [15] = target: T1, Tubulin (Homo sapiens); assay: In vitro inhibition of microtubule (unknown origin) assembly at 10 uM; format: protein-complex assay
MCF7 [16] = assay: Induction of apoptosis in human MCF7 cells assessed as viable cells at 50 nM measured after 48 hrs by AnnexinV/PI double staining assays (reference value: 91.20%); format: functional; details: read-out: Activity
MCF7 [17] = assay: Induction of cell cycle arrest in human MCF7 cells assessed as increase in cyclin B1 protein expression at […] by Western blot analysis; format: functional, cell-based; details: dose lower 12.5 µM
NCI/ADR-RES = assay: Antiproliferation activity against human MCF7/ADR cells measured after 72 hrs incubation by MTT assay; format: functional, cell-based
MCF7 [18] = assay: Induction of apoptosis in human MCF7 cells assessed as early apoptotic cells at 6.25 nM measured after 48 hrs by AnnexinV/PI double staining assays (reference value: 5.32%); format: functional
[19] = target: Tubulin beta (Homo sapiens) (UniProt P68371+Q9H4B7+Q13509+P04350+Q3ZCM7+P07437+Q13885+Q9BVA1+Q9BUF5+A6NNZ2); assay: Binding affinity to beta-tubulin colchicine binding site in human MCF7 cells assessed as inhibition of EBI-beta-tubulin adduct band formation preincubated for 2 hrs followed by EBI addition measured after 2 hrs by EBI competition based Western blotting analysis; format: cell-based; details: dose 12.5-100 nM
[20] = target: T2, DNA topoisomerase 1 (Homo sapiens) (UniProt P11387); assay: Inhibition of human DNA topoisomerase 1 assessed as relaxation of supercoiled pBR322 DNA as substrate incubated for 30 mins by gel staining based electrophoresis analysis; details: dose 20-200 µM
T2 sequence (whole entry): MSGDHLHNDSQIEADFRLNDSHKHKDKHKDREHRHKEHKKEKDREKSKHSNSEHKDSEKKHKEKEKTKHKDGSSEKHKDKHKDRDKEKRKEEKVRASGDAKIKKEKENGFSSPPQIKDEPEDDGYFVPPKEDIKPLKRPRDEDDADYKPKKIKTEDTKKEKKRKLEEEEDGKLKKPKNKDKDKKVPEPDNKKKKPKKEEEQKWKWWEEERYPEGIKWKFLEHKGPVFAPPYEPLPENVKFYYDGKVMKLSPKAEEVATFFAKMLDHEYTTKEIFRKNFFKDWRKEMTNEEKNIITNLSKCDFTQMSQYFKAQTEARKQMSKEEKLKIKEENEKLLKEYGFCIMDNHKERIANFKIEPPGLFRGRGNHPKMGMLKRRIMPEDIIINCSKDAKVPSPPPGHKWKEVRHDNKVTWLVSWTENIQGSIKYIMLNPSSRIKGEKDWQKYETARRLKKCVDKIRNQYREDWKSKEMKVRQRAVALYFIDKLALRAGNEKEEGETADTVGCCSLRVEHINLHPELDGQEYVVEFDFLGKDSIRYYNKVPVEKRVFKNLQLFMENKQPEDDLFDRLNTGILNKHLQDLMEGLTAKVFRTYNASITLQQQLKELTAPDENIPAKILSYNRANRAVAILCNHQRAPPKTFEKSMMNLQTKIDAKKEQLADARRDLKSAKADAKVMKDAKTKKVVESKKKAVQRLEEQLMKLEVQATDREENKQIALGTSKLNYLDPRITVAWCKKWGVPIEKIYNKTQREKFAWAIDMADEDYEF

MCF7 [21] = assay: Induction of apoptosis in human MCF7 cells assessed as necrotic cells at 50 nM measured after 48 hrs by AnnexinV/PI double staining assays (reference value: 0.89%); format: functional
KB = assay: Antiproliferation activity against human KB cells measured after 72 hrs incubation by MTT assay; format: functional, cell-based
MCF7 [22] = assay: Induction of cell cycle arrest in human MCF7 cells assessed as accumulation of cells at G2/M phase at 100 nM measured after 24 hrs by flow cytometry (reference value: 22.84%); format: functional
MCF7 [23] = assay: Induction of apoptosis in human MCF7 cells assessed as early apoptotic cells at 12.5 nM measured after 48 hrs by AnnexinV/PI double staining assays (reference value: 5.32%); format: functional

inhibition (Tubulin (Homo sapiens) [6]): Active | IC50 (MDA-MB-231): 31.2 nM | IC50 (MCF7 [9]): 12.2 nM | inhibition [11]: inactive | inhibition (Tubulin (Homo sapiens) [15]): Active | Activity [19]: Active | inhibition [20]: Dose-Dependent Effect | IC50 (KB): 9.45 nM
Structure (SMILES): COc1cc(NS(=O)(=O)c2ccc3c(c2)c2ccc(N)cc2n3C)c(OC)cc1Cl
viability at 0.00625 µM (MCF7 [1]): 76.1% | Activity (MCF7 [2]): 14.03% | Activity (MCF7 [3]): 46.14% | Activity (MCF7 [4]): 4.32% | Activity (MCF7 [5]): 5.54% | viability at 0.0125 µM (MCF7 [7]): 64.2% | inhibition (HMEC-1 [8]): Active | Activity (MCF7 [10]): 50.98% | Activity (MCF7 [12]): 0.51% | IC50 (HMEC-1 [13]): 6.42 nM | Activity (MCF7 [14]): 23.3% | viability at 0.05 µM (MCF7 [16]): 34.2% | Activity (MCF7 [17]): Dose-Dependent Effect | IC50 (NCI/ADR-RES): 1.86 nM | Activity (MCF7 [18]): 16.87% | Activity (MCF7 [21]): 0.08% | Activity (MCF7 [22]): 41.21% | Activity (MCF7 [23]): 26.99%
